Experimental data as given in patent US20230085307A1, “PYRIDAZINONE COMPOUND AND HERBICIDE” (NISSAN CHEMICAL CORPORATION, priority 2019, published 2023).

Legend:
late watergrass = assay: Test Example 2: herbicidal activity, application during weed generation under submerged conditions (Table 17, symbol A); format: in vivo, late watergrass (Echinochloa oryzicola); settings: AAH 320 g/ha; application during weed generation, submerged conditions
Method in brief: (§1)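 Steps: fill Wagner pots with alluvial soil; add water to give 4 cm depth; sow the species mixed; grow under glass at 25–30° C.; at 1–2 leaves apply water-diluted emulsion formulation to the water surface at a fixed herbicide amount; score after 3 weeks.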

Japanese bulrush = assay: Test Example 2: herbicidal activity, application during weed generation under submerged conditions (Table 17, symbol B); format: in vivo, Japanese bulrush (Schoenoplectus juncoides); settings: AAH 320 g/ha; application during weed generation, submerged conditions
Method in brief: as §1

oval-leafed pondweed = assay: Test Example 2: herbicidal activity, application during weed generation under submerged conditions (Table 17, symbol C); format: in vivo, oval-leafed pondweed (Monochoria vaginalis); settings: AAH 320 g/ha; application during weed generation, submerged conditions
Method in brief: as §1

barnyard grass [1] = assay: Test Example 3: herbicidal effect by foliage application, Wagner pot (Table 18, symbol H); format: in vivo, barnyard grass (Echinochloa crus-galli); settings: 320 g/ha
Method in brief: (§2)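 Plants were sown in alluvial soil held under 0.1–0.5 cm standing water and grown 14 days in a greenhouse at 25–30 °C. An emulsifiable formulation, water-diluted to the set dose, was then sprayed onto the foliage, and effects were scored three weeks later using previously defined criteria.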

Chinese sprangletop = assay: Test Example 3: herbicidal effect by foliage application, Wagner pot (Table 18, symbol D); format: in vivo, chinese sprangletop (Leptochloa chinensis); settings: 320 g/ha
Method in brief: as §2

rice flat sedge = assay: Test Example 3: herbicidal effect by foliage application, Wagner pot (Table 18, symbol E); format: in vivo, rice flat sedge (Cyperus iria); settings: 320 g/ha
Method in brief: as §2

wild oat [2] = assay: Test Example 4: herbicidal effect by soil treatment (Table 19, symbol I); format: in vivo, wild oat (Avena fatua)
Method in brief: (§3)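 Emulsion of test compound, water-diluted to predetermined amount, sprayed on soil after sowing (seed depth ~1.5 cm, sterilized diluvial soil). Greenhouse, 25–30° C. Effect graded at three weeks post-spray.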

blackgrass [3] = assay: Test Example 4: herbicidal effect by soil treatment (Table 19, symbol J); format: in vivo, blackgrass (Alopecurus myosuroides)
Method in brief: as §3

Italian ryegrass [4] = assay: Test Example 4: herbicidal effect by soil treatment (Table 19, symbol K); format: in vivo, Italian ryegrass (Lolium multiflorum)
Method in brief: as §3

windgrass [5] = assay: Test Example 4: herbicidal effect by soil treatment (Table 19, symbol L); format: in vivo, windgrass (Apera spica-venti)
Method in brief: as §3

chickweed [6] = assay: Test Example 4: herbicidal effect by soil treatment (Table 19, symbol P); format: in vivo, common chickweed (Stellaria media)
Method in brief: as §3

persian speedwell [7] = assay: Test Example 4: herbicidal effect by soil treatment (Table 19, symbol R); format: in vivo, Persian speedwell (Veronica persica)
Method in brief: as §3

southern crabgrass [8] = assay: Test Example 5: herbicidal effect by foliage application, plastic box (Table 20, symbol F); format: in vivo, southern crabgrass (Digitaria ciliaris); settings: foliage application, 320 g/ha
Method in brief: (§4)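 Post-emergence foliar test in sterilized diluvial soil. Compound applied as water-diluted emulsion at a predetermined rate to 14-day-old plants; evaluation at three weeks.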

green foxtail [9] = assay: Test Example 5: herbicidal effect by foliage application, plastic box (Table 20, symbol G); format: in vivo, green foxtail (Setaria viridis); settings: foliage application, 320 g/ha
Method in brief: as §4

barnyard grass [10] = assay: Test Example 5: herbicidal effect by foliage application, plastic box (Table 20, symbol H); format: in vivo, barnyard grass (Echinochloa crus-galli); settings: foliage application, 320 g/ha
Method in brief: as §4

wild oat [11] = assay: Test Example 5: herbicidal effect by foliage application, plastic box (Table 20, symbol I); format: in vivo, wild oat (Avena fatua); settings: foliage application, 320 g/ha
Method in brief: as §4

blackgrass [12] = assay: Test Example 5: herbicidal effect by foliage application, plastic box (Table 20, symbol J); format: in vivo, blackgrass (Alopecurus myosuroides); settings: foliage application, 320 g/ha
Method in brief: as §4

Italian ryegrass [13] = assay: Test Example 5: herbicidal effect by foliage application, plastic box (Table 20, symbol K); format: in vivo, Italian ryegrass (Lolium multiflorum); settings: foliage application, 320 g/ha
Method in brief: as §4

windgrass [14] = assay: Test Example 5: herbicidal effect by foliage application, plastic box (Table 20, symbol L); format: in vivo, windgrass (Apera spica-venti); settings: foliage application, 320 g/ha
Method in brief: as §4

velvetleaf [15] = assay: Test Example 5: herbicidal effect by foliage application, plastic box (Table 20, symbol M); format: in vivo, velvetleaf (Abutilon theophrasti); settings: foliage application, 320 g/ha
Method in brief: as §4

redroot pigweed [16] = assay: Test Example 5: herbicidal effect by foliage application, plastic box (Table 20, symbol N); format: in vivo, redroot pigweed (Amaranthus retroflexus); settings: foliage application, 320 g/ha
Method in brief: as §4

lambsquarters [17] = assay: Test Example 5: herbicidal effect by foliage application, plastic box (Table 20, symbol O); format: in vivo, lambsquarters (Chenopodium album); settings: foliage application, 320 g/ha
Method in brief: as §4

chickweed [18] = assay: Test Example 5: herbicidal effect by foliage application, plastic box (Table 20, symbol P); format: in vivo, common chickweed (Stellaria media); settings: foliage application, 320 g/ha
Method in brief: as §4

persian speedwell [19] = assay: Test Example 5: herbicidal effect by foliage application, plastic box (Table 20, symbol R); format: in vivo, Persian speedwell (Veronica persica); settings: foliage application, 320 g/ha
Method in brief: as §4

southern crabgrass [20] = assay: Test Example 4: herbicidal effect by soil treatment (Table 19, symbol F); format: in vivo, southern crabgrass (Digitaria ciliaris); settings: 320 g/ha
Method in brief: as §3

green foxtail [21] = assay: Test Example 4: herbicidal effect by soil treatment (Table 19, symbol G); format: in vivo, green foxtail (Setaria viridis); settings: 320 g/ha
Method in brief: as §3

barnyard grass [22] = assay: Test Example 4: herbicidal effect by soil treatment (Table 19, symbol H); format: in vivo, barnyard grass (Echinochloa crus-galli); settings: 320 g/ha
Method in brief: as §3

velvetleaf [23] = assay: Test Example 4: herbicidal effect by soil treatment (Table 19, symbol M); format: in vivo, velvetleaf (Abutilon theophrasti); settings: 320 g/ha
Method in brief: as §3

redroot pigweed [24] = assay: Test Example 4: herbicidal effect by soil treatment (Table 19, symbol N); format: in vivo, redroot pigweed (Amaranthus retroflexus); settings: 320 g/ha
Method in brief: as §3

lambsquarters [25] = assay: Test Example 4: herbicidal effect by soil treatment (Table 19, symbol O); format: in vivo, lambsquarters (Chenopodium album); settings: 320 g/ha
Method in brief: as §3

[26] = amount of applied herbicide 320 g/ha
[27] = evaluated three weeks after application

## CCCC(=O)Oc1c(C)nn(C)c(=O)c1-c1c(-c2ccc(OC(F)(F)F)cc2)sc2ccccc12 [1-032]
Late watergrass
  herbicidal effect rating, A: late watergrass: 0 (Herbicidal rate of 5% or less (almost no effect))
Japanese bulrush
  herbicidal effect rating, B: Japanese bulrush: 1 (Herbicidal rate of 5% or more and less than 20%)
oval-leafed pondweed
  herbicidal effect rating, C: oval-leafed pondweed: 3 (Herbicidal rate of 40% or more and less than 70%)
Barnyard grass [1]
  herbicidal effect on H (barnyard grass), rating 0-5: 4 (Herbicidal rate of 70% or more and less than 90%)
Chinese sprangletop
  herbicidal effect on D (Chinese sprangletop), rating 0-5: 0 (Herbicidal rate of 5% or less (almost no effect))
Rice flat sedge
  herbicidal effect on E (rice flat sedge), rating 0-5: 5 (Herbicidal rate of 90% or more (almost completely withered))
Wild oat [2]; [26]
  herbicidal effect rating, I: wild oat: 0 (Herbicidal rate of 5% or less (almost no effect))
Blackgrass [3]; [26]
  herbicidal effect rating, J: blackgrass: 0 (Herbicidal rate of 5% or less (almost no effect))
Italian ryegrass [4]; [26]
  herbicidal effect rating, K: Italian ryegrass: 4 (Herbicidal rate of 70% or more and less than 90%)
Windgrass [5]; [26]
  herbicidal effect rating, L: windgrass: 0 (Herbicidal rate of 5% or less (almost no effect))
Chickweed [6]; [26]
  herbicidal effect rating, P: chickweed: 3 (Herbicidal rate of 40% or more and less than 70%)
Persian speedwell [7]; [26]
  herbicidal effect rating, R: persian speedwell: 5 (Herbicidal rate of 90% or more (almost completely withered))
Southern crabgrass [8]; three weeks after application
  herbicidal effect grade, F: southern crabgrass: 0 (Herbicidal rate of 5% or less (almost no effect))
Green foxtail [9]; three weeks after application
  herbicidal effect grade, G: green foxtail: 4 (Herbicidal rate of 70% or more and less than 90%)
Barnyard grass [10]; three weeks after application
  herbicidal effect grade, H: barnyard grass: 3 (Herbicidal rate of 40% or more and less than 70%)
Wild oat [11]; three weeks after application
  herbicidal effect grade, I: wild oat: 0 (Herbicidal rate of 5% or less (almost no effect))
Blackgrass [12]; three weeks after application
  herbicidal effect grade, J: blackgrass: 2 (Herbicidal rate of 20% or more and less than 40%)
Italian ryegrass [13]; three weeks after application
  herbicidal effect grade, K: Italian ryegrass: 3 (Herbicidal rate of 40% or more and less than 70%)
Windgrass [14]; three weeks after application
  herbicidal effect grade, L: windgrass: 0 (Herbicidal rate of 5% or less (almost no effect))
Velvetleaf [15]; three weeks after application
  herbicidal effect grade, M: velvetleaf: 5 (Herbicidal rate of 90% or more (almost completely withered))
Redroot pigweed [16]; three weeks after application
  herbicidal effect grade, N: redroot pigweed: 4 (Herbicidal rate of 70% or more and less than 90%)
Lambsquarters [17]; three weeks after application
  herbicidal effect grade, O: lambsquarters: 5 (Herbicidal rate of 90% or more (almost completely withered))
Chickweed [18]; three weeks after application
  herbicidal effect grade, P: chickweed: 5 (Herbicidal rate of 90% or more (almost completely withered))
Persian speedwell [19]; three weeks after application
  herbicidal effect grade, R: persian speedwell: 5 (Herbicidal rate of 90% or more (almost completely withered))

## COCCOCOc1c(C)nn(C)c(=O)c1-c1c(-c2ccc(OCC#N)cc2)sc2ccc(F)cc12 [2-067]
Late watergrass
  herbicidal effect rating, A: late watergrass: 2 (Herbicidal rate of 20% or more and less than 40%)
Japanese bulrush
  herbicidal effect rating, B: Japanese bulrush: 0 (Herbicidal rate of 5% or less (almost no effect))
oval-leafed pondweed
  herbicidal effect rating, C: oval-leafed pondweed: 0 (Herbicidal rate of 5% or less (almost no effect))
Barnyard grass [1]
  herbicidal effect on H (barnyard grass), rating 0-5: 4 (Herbicidal rate of 70% or more and less than 90%)
Chinese sprangletop
  herbicidal effect on D (Chinese sprangletop), rating 0-5: 5 (Herbicidal rate of 90% or more (almost completely withered))
Rice flat sedge
  herbicidal effect on E (rice flat sedge), rating 0-5: 3 (Herbicidal rate of 40% or more and less than 70%)
Southern crabgrass [20]
  herbicidal effect rating, F: southern crabgrass: 0 (Herbicidal rate of 5% or less (almost no effect))
Green foxtail [21]
  herbicidal effect rating, G: green foxtail: 0 (Herbicidal rate of 5% or less (almost no effect))
Barnyard grass [22]
  herbicidal effect rating, H: barnyard grass: 0 (Herbicidal rate of 5% or less (almost no effect))
Wild oat [2]; 320 g/ha
  herbicidal effect rating, I: wild oat: 0 (Herbicidal rate of 5% or less (almost no effect))
Blackgrass [3]; 320 g/ha
  herbicidal effect rating, J: blackgrass: 0 (Herbicidal rate of 5% or less (almost no effect))
Italian ryegrass [4]; 320 g/ha
  herbicidal effect rating, K: Italian ryegrass: 0 (Herbicidal rate of 5% or less (almost no effect))
Windgrass [5]; 320 g/ha
  herbicidal effect rating, L: windgrass: 0 (Herbicidal rate of 5% or less (almost no effect))
Velvetleaf [23]
  herbicidal effect rating, M: velvetleaf: 0 (Herbicidal rate of 5% or less (almost no effect))
Redroot pigweed [24]
  herbicidal effect rating, N: redroot pigweed: 3 (Herbicidal rate of 40% or more and less than 70%)
Lambsquarters [25]
  herbicidal effect rating, O: lambsquarters: 3 (Herbicidal rate of 40% or more and less than 70%)
Chickweed [6]; 320 g/ha
  herbicidal effect rating, P: chickweed: 0 (Herbicidal rate of 5% or less (almost no effect))
Persian speedwell [7]; 320 g/ha
  herbicidal effect rating, R: persian speedwell: 3 (Herbicidal rate of 40% or more and less than 70%)
Southern crabgrass [8]; [27]
  herbicidal effect on F: southern crabgrass: 3 (Herbicidal rate of 40% or more and less than 70%)
Green foxtail [9]; [27]
  herbicidal effect on G: green foxtail: 1 (Herbicidal rate of 5% or more and less than 20%)
Barnyard grass [10]; [27]
  herbicidal effect on H: barnyard grass: 1 (Herbicidal rate of 5% or more and less than 20%)
Wild oat [11]; [27]
  herbicidal effect on I: wild oat: 0 (Herbicidal rate of 5% or less (almost no effect))
Blackgrass [12]; [27]
  herbicidal effect on J: blackgrass: 0 (Herbicidal rate of 5% or less (almost no effect))
Italian ryegrass [13]; [27]
  herbicidal effect on K: Italian ryegrass: 0 (Herbicidal rate of 5% or less (almost no effect))
Windgrass [14]; [27]
  herbicidal effect on L: windgrass: 0 (Herbicidal rate of 5% or less (almost no effect))
Velvetleaf [15]; [27]
  herbicidal effect on M: velvetleaf: 2 (Herbicidal rate of 20% or more and less than 40%)
Redroot pigweed [16]; [27]
  herbicidal effect on N: redroot pigweed: 5 (Herbicidal rate of 90% or more (almost completely withered))
Lambsquarters [17]; [27]
  herbicidal effect on O: lambsquarters: 4 (Herbicidal rate of 70% or more and less than 90%)
Chickweed [18]; [27]
  herbicidal effect on P: chickweed: 4 (Herbicidal rate of 70% or more and less than 90%)
Persian speedwell [19]; [27]
  herbicidal effect on R: persian speedwell: 5 (Herbicidal rate of 90% or more (almost completely withered))
